{
  "source": "patent US20240139220A1",
  "about": "“TREATMENT OF HPV INFECTION” (priority 2022, published 2024)",
  "assay_type_in_all_cases": "physicochemical",
  "key": {"[1]": {"experiment": "Hygroscicity by Dynamic Vapor Sorption (DVS) at 25° C.", "conditions": "for Water uptake: DVS 25° C.", "description": "Hygroscopicity was investigated by DVS at 25° C., using the following method: […]"}, "[2]": {"experiment": "Bulk stability, accelerated storage for one week (HPLC, XRPD)", "protocol": "Bulk stability: Accelerated stability experiments were conducted at 25° C./92% RH and 40° C./75% RH in an open container, 60° C. in a tight container for one week.\nSamples were characterized by XRPD and HPLC and inspected for color change.\nAccelerated stability experiments were conducted at 25° C./92% RH in an open container, at 40° C./75% RH in an open container, and at 60° C. in a tight container for one week."}, "[3]": {"experiment": "Solubility in buffers, water and simulated vaginal fluid at 37° C.", "description": "About 4 mg of Compound I Pattern 1 was added into 2 mL of buffer solution.\n(§1) Solubility was tested in five media, pH 3.0 citrate buffer, pH 4.5 acetate buffer, pH 6.8 phosphate buffer, water, simulated vaginal fluid (pH 4.2) at 37° C. for 0.5 h and 2 h.\nThe salt amount used is equivalent to 10 mg anhydrous free base. […] The obtained clear solutions were analyzed by pH meter for pH, and solubility was determined by observation.\nas §1"}, "[4]": {"conditions": "25° C., 92% RH, open container, one week"}, "[5]": {"conditions": "40° C., 75% RH, open container, one week"}, "[6]": {"conditions": "60° C., tight container, one week"}, "[7]": {"conditions": "Simulated vaginal fluid (pH adjusted with 0.2N NaOH)"}},
  "data": [
    {"smiles": "CCOC(=O)C(C)NP(=O)(COCCn1cnc2c(OC)nc(N)nc21)OCc1ccccc1", "note": "(mixture of isomers) [Compound I free base Pattern 1]", "values": [
      {"measurement": "D. (%) Cycle 1 (Desorption)", "setting": "[1]; 0% RH, 25° C.", "value": 0.00, "unit": "%"},
      {"measurement": "D. (%) Cycle 2 (Desorption)", "setting": "[1]; 0% RH, 25° C.", "value": 0.19, "unit": "%"},
      {"measurement": "S. (%) Cycle 1 (Sorption)", "setting": "[1]; 0% RH, 25° C.", "value": 0.00, "unit": "%"},
      {"measurement": "S. (%) Cycle 2 (Sorption)", "setting": "[1]; 0% RH, 25° C.", "value": 0.19, "unit": "%"},
      {"measurement": "D. (%) Cycle 1 (Desorption)", "setting": "[1]; 10% RH, 25° C.", "value": 0.11, "unit": "%"},
      {"measurement": "D. (%) Cycle 2 (Desorption)", "setting": "[1]; 10% RH, 25° C.", "value": 0.37, "unit": "%"},
      {"measurement": "S. (%) Cycle 1 (Sorption)", "setting": "[1]; 10% RH, 25° C.", "value": 0.08, "unit": "%"},
      {"measurement": "S. (%) Cycle 2 (Sorption)", "setting": "[1]; 10% RH, 25° C.", "value": 0.22, "unit": "%"},
      {"measurement": "D. (%) Cycle 1 (Desorption)", "setting": "[1]; 20% RH, 25° C.", "value": 0.23, "unit": "%"},
      {"measurement": "D. (%) Cycle 2 (Desorption)", "setting": "[1]; 20% RH, 25° C.", "value": 0.57, "unit": "%"},
      {"measurement": "S. (%) Cycle 1 (Sorption)", "setting": "[1]; 20% RH, 25° C.", "value": 0.17, "unit": "%"},
      {"measurement": "S. (%) Cycle 2 (Sorption)", "setting": "[1]; 20% RH, 25° C.", "value": 0.30, "unit": "%"},
      {"measurement": "D. (%) Cycle 1 (Desorption)", "setting": "[1]; 30% RH, 25° C.", "value": 0.47, "unit": "%"},
      {"measurement": "D. (%) Cycle 2 (Desorption)", "setting": "[1]; 30% RH, 25° C.", "value": 0.83, "unit": "%"},
      {"measurement": "S. (%) Cycle 1 (Sorption)", "setting": "[1]; 30% RH, 25° C.", "value": 0.28, "unit": "%"},
      {"measurement": "S. (%) Cycle 2 (Sorption)", "setting": "[1]; 30% RH, 25° C.", "value": 0.44, "unit": "%"},
      {"measurement": "D. (%) Cycle 1 (Desorption)", "setting": "[1]; 40% RH, 25° C.", "value": 0.60, "unit": "%"},
      {"measurement": "D. (%) Cycle 2 (Desorption)", "setting": "[1]; 40% RH, 25° C.", "value": 1.09, "unit": "%"},
      {"measurement": "S. (%) Cycle 1 (Sorption)", "setting": "[1]; 40% RH, 25° C.", "value": 0.41, "unit": "%"},
      {"measurement": "S. (%) Cycle 2 (Sorption)", "setting": "[1]; 40% RH, 25° C.", "value": 0.62, "unit": "%"},
      {"measurement": "D. (%) Cycle 2 (Desorption)", "setting": "[1]; 50% RH, 25° C.", "value": 1.48, "unit": "%"},
      {"measurement": "S. (%) Cycle 1 (Sorption)", "setting": "[1]; 50% RH, 25° C.", "value": 0.61, "unit": "%"},
      {"measurement": "D. (%) Cycle 2 (Desorption)", "setting": "[1]; 60% RH, 25° C.", "value": 1.96, "unit": "%"},
      {"measurement": "S. (%) Cycle 1 (Sorption)", "setting": "[1]; 60% RH, 25° C.", "value": 0.85, "unit": "%"},
      {"measurement": "D. (%) Cycle 2 (Desorption)", "setting": "[1]; 70% RH, 25° C.", "value": 2.78, "unit": "%"},
      {"measurement": "S. (%) Cycle 1 (Sorption)", "setting": "[1]; 70% RH, 25° C.", "value": 1.14, "unit": "%"},
      {"measurement": "D. (%) Cycle 2 (Desorption)", "setting": "[1]; 80% RH, 25° C.", "value": 4.33, "unit": "%"},
      {"measurement": "S. (%) Cycle 1 (Sorption)", "setting": "[1]; 80% RH, 25° C.", "value": 1.64, "unit": "%"},
      {"measurement": "D. (%) Cycle 2 (Desorption)", "setting": "[1]; 90% RH, 25° C.", "value": 9.10, "unit": "%"},
      {"measurement": "S. (%) Cycle 1 (Sorption)", "setting": "[1]; 90% RH, 25° C.", "value": 4.27, "unit": "%"},
      {"measurement": "D. (%) Cycle 2 (Desorption)", "setting": "[1]; 95% RH, 25° C.", "value": 14.32, "unit": "%"},
      {"measurement": "S. (%) Cycle 1 (Sorption)", "setting": "[1]; 95% RH, 25° C.", "value": 14.32, "unit": "%"},
      {"measurement": "XRPD after DVS test", "setting": "[1]; cycle 40-0-95-0-40% RH, 25° C.", "value": "No form change,"},
      {"measurement": "Water uptake", "setting": "[1]; up to 90% RH", "value": "about 4.3%"},
      {"measurement": "Water uptake", "setting": "[1]; up to 95% RH", "value": "about 14.3%"},
      {"measurement": "XRPD", "setting": "[2]; 25° C., 84% RH, open container, 2 days", "value": "No change"},
      {"measurement": "HPLC (chemical purity)", "setting": "[2]; [4]", "value": 98.5, "unit": "%"},
      {"measurement": "XRPD", "setting": "[2]; [4]", "value": "No change"},
      {"measurement": "HPLC (chemical purity)", "setting": "[2]; [5]", "value": 95.2, "unit": "%"},
      {"measurement": "XRPD", "setting": "[2]; [5]", "value": "No change"},
      {"measurement": "HPLC (chemical purity)", "setting": "[2]; [6]", "value": 98.5, "unit": "%"},
      {"measurement": "XRPD", "setting": "[2]; [6]", "value": "No change"},
      {"measurement": "HPLC (chemical purity)", "setting": "[2]; Initial", "value": 98.7, "unit": "%"},
      {"measurement": "Solubility 0.5 hrs", "setting": "[3]; [7]", "value": ">2000", "unit": "µg/mL"},
      {"measurement": "Solubility 2 hrs", "setting": "[3]; [7]", "value": ">2000", "unit": "µg/mL"},
      {"measurement": "pH at 2 hrs", "setting": "[3]; [7]", "value": "(5.53)"},
      {"measurement": "Solubility 0.5 hrs", "setting": "[3]; Water", "value": ">2000", "unit": "µg/mL"},
      {"measurement": "Solubility 2 hrs", "setting": "[3]; Water", "value": ">2000", "unit": "µg/mL"},
      {"measurement": "pH at 2 hrs", "setting": "[3]; Water", "value": "(7.55)"},
      {"measurement": "Solubility 0.5 hrs", "setting": "[3]; pH 3.0 100 mM citrate buffer", "value": ">2000", "unit": "µg/mL"},
      {"measurement": "Solubility 2 hrs", "setting": "[3]; pH 3.0 100 mM citrate buffer", "value": ">2000", "unit": "µg/mL"},
      {"measurement": "pH at 2 hrs", "setting": "[3]; pH 3.0 100 mM citrate buffer", "value": "(2.98)"},
      {"measurement": "Solubility 0.5 hrs", "setting": "[3]; pH 4.5 50 mM acetate buffer", "value": ">2000", "unit": "µg/mL"},
      {"measurement": "Solubility 2 hrs", "setting": "[3]; pH 4.5 50 mM acetate buffer", "value": ">2000", "unit": "µg/mL"},
      {"measurement": "pH at 2 hrs", "setting": "[3]; pH 4.5 50 mM acetate buffer", "value": "(4.50)"},
      {"measurement": "Solubility 0.5 hrs", "setting": "[3]; pH 6.8 50 mM phosphate buffer", "value": ">2000", "unit": "µg/mL"},
      {"measurement": "Solubility 2 hrs", "setting": "[3]; pH 6.8 50 mM phosphate buffer", "value": ">2000", "unit": "µg/mL"},
      {"measurement": "pH at 2 hrs", "setting": "[3]; pH 6.8 50 mM phosphate buffer", "value": "(6.81)"}
    ]}
  ]
}
